Ends that are not written are not given here.
System: pre-adipocyte cell line 3T3-L1
Experiment: Activity of the peptides on adipocytes: 3T3-L1 pre-adipocytes differentiated into mature adipocytes, Oil Red staining of lipid vacuoles, microscope observation
Format: cell-based
Details: mature adipocytes from 3T3-L1, treated with solution containing the peptide
Experimental: The number and the size of the lipid vacuoles present in the mature adipocytes are evaluated by microscope observation after specific staining with the “Oil Red” stain.
The pre-adipocyte cells 3T3-L1 are seeded in Labteks and maintained until 100% confluence in DMEM 10% SVF culture medium. The cells are treated with the peptide of sequence ID N° (5), representative of the family of peptides per the invention, placed in 1% solution à 1% starting with a solution of 50 ppm. Nontreated controls were prepared in parallel.
Once confluence is achieved, the cells are cultivated in the presence of differentiation inducers (IBMX, dexamethasone and insulin), so as to bring about the final differentiation into mature adipocytes. The differentiated adipocytes are further incubated for 3 hours with the peptide being tested in a concentration of 1%. Nontreated controls were prepared in parallel.
The adipocytes are then fixed for 10 minutes in a 4% formol and NaCl solution, after which the “Oil Red” stain solution (Sigma, O-0625) is applied for 15 minutes. The cells are then rinsed with warm water and mounted on slides, in hydrophilic medium (Aquatex). The observation is done under an optical microscope.

## GLYDNLE [sequence ID N^o (5)]
Versus nontreated controls (voluminous spherical shape)
  morphology of mature adipocytes: less rounded
Versus nontreated controls, Oil Red stain
  content of intra-adipocyte lipid vesicles: clearly diminished

Source: patent publication US8318681B2, “Utilization of peptides as active ingredients for slimming” (ISP Investments Inc., priority 2006, dated 2012)
